Experimental data taken from publication PMC8658794, “Design, Synthesis, and Biological Evaluation of HDAC Degraders with CRBN E3 Ligase Ligands” (Molecules, 2021).
Like-named read-outs stand apart in the source and are kept apart here.

Tests used:
[1] = target: T1, HDAC6 (Homo sapiens, UniProt Q9UBN7); assay: In vitro HDAC inhibition assay (fluorogenic substrate), HDAC6; format: biochemical; design: All three full-length rhHDACs were expressed in insect High5 cells using a baculoviral expression system; His6; GST; made in house; host or cells: insect High5 cells (baculovirus); conditions: recombinant human HDAC6; mean ± SD of three independent determinations
T1 sequence (Q9UBN7 1-1215): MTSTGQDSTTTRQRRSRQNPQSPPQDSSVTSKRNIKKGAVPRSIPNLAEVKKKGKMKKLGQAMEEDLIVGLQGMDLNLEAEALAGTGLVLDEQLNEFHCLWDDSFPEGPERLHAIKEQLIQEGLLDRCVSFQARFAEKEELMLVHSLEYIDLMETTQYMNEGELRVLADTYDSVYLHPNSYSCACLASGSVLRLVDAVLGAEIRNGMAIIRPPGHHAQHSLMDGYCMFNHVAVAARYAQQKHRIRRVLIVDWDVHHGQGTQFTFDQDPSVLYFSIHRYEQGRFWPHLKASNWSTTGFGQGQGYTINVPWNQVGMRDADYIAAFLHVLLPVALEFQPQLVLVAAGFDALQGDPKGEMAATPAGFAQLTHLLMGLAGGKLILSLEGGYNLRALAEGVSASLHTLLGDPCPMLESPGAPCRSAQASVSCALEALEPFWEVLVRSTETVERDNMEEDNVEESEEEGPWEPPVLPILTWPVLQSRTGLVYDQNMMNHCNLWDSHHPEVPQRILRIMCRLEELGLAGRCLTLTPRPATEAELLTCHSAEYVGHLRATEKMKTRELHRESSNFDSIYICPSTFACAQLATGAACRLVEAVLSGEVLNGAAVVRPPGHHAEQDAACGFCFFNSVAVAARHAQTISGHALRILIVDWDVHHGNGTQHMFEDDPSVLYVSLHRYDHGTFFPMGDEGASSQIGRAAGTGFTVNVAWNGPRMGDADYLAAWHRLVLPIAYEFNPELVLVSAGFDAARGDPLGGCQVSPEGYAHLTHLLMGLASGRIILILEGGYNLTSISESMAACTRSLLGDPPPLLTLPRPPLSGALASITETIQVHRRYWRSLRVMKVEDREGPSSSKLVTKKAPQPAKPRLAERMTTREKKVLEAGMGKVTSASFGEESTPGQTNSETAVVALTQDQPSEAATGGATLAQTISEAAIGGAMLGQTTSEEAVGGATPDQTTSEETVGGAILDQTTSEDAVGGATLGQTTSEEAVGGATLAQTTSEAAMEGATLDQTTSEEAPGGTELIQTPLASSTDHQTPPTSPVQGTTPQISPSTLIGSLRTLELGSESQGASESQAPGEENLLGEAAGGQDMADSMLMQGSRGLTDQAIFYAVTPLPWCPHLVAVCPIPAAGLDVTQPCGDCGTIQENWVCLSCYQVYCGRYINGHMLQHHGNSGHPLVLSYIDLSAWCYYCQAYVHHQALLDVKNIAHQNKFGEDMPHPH
Protocol: (§1) All three full-length rhHDACs were expressed in insect High5 cells using a baculoviral expression system, and all the His6-tagged and GST-fusion proteins were purified using Ni-NTA (QIAGEN). […] In brief, the HDAC assay mixture contained an HDAC substrate (5–50 μM, 5 μl), rhHDAC isoforms (20–200 nM) and an inhibitor (1 μl). The positive controls contained all the above components except the inhibitor. The negative controls contained neither an enzyme nor an inhibitor. The HDAC6 assay components were incubated at room temperature for 3 h, and HDAC 1 and 3 were incubated for 24 h. […] The plates were incubated for 30 min at room temperature to allow the fluorescence signal to develop.

[2] = target: T2, HDAC1 (Homo sapiens, UniProt Q13547); assay: In vitro HDAC inhibition assay (fluorogenic substrate), HDAC1; format: biochemical; design: All three full-length rhHDACs were expressed in insect High5 cells using a baculoviral expression system; His6; GST; made in house; host or cells: insect High5 cells (baculovirus); conditions: recombinant human HDAC1; mean ± SD of three independent determinations
Protocol: as §1

[3] = target: T3, HDAC3 (Homo sapiens, UniProt O15379); assay: In vitro HDAC inhibition assay (fluorogenic substrate), HDAC3; format: biochemical; design: All three full-length rhHDACs were expressed in insect High5 cells using a baculoviral expression system; His6; GST; made in house; host or cells: insect High5 cells (baculovirus); conditions: recombinant human HDAC3; mean ± SD of three independent determinations
Protocol: as §1
Target sequence in this assay (O15379 whole entry): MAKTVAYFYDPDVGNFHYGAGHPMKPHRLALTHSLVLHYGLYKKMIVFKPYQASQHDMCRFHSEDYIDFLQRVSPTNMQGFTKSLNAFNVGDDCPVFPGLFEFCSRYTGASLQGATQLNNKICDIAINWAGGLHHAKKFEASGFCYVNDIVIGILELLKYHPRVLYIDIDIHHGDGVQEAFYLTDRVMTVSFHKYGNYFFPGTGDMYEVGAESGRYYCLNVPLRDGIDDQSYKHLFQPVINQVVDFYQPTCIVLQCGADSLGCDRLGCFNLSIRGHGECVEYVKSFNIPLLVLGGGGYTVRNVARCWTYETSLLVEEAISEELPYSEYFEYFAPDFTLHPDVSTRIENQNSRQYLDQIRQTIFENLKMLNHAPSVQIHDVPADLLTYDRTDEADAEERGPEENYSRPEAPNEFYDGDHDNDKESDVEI
Target sequence in this assay (Q9Y618 395-489 partner limits assumed): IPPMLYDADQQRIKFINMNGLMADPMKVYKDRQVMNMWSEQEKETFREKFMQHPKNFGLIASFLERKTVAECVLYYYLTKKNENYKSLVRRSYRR

[4] = system: MM.1S cell line; assay: In vitro anti-proliferative activity, MTS assay; format: cell-based; conditions: for IC50: Homo sapiens, MM1.S
Protocol: The cells were seeded in 96 well plates at a proper density in growth media. After 24 h, a range of concentrations of the test compounds was added and the plates were incubated at 37 °C for 72 h. The cell proliferation was determined by the MTS assay. After 3 h, the absorbance was collected using SpectraMAX 340. The IC50 values were calculated by fitting a concentration–response curve using a SoftMax pro-based four-parameter method.

[5] = target: T1, HDAC6; assay: Western blot of HDAC6 protein level (degradation) in MM.1S cells; format: cell-based; design: endogenous in cells; host or cells: MM.1S; conditions: 3 h; for degradation of HDAC6 (immunoblot): different concentrations
Protocol: (§2) The 2 × 10^6 MM.1S cells (multiple myeloma) were cultured in a cell culture plate and incubated for 1 h. Next, the MM.1S cells were treated with compounds at different concentrations for 3 h. Subsequently, the cells were collected, washed, lysed in a Ripa buffer containing a sample reducing agent, and analyzed using SDS/PAGE. Finally, the gel was blotted and the total HDAC levels were detected through standard Western blot.

[6] = system: tubulin acetylation; assay: Tubulin acetylation in MM.1S cells; format: cell-based
[7] = target: T2, HDAC1; assay: Western blot of HDAC1 protein level (degradation) in MM.1S cells; format: cell-based; design: endogenous in cells; host or cells: MM.1S; conditions: 3 h, different concentrations
Protocol: as §2

[8] = target: T3, HDAC3; assay: Western blot of HDAC3 protein level (degradation) in MM.1S cells; format: cell-based; design: endogenous in cells; host or cells: MM.1S; conditions: 3 h, different concentrations
Protocol: as §2
Target sequence in this assay (O15379 whole entry): as the sequence (O15379 whole entry) above

[9] = MM.1S, 72 h, MTS, mean ± SD of three independent determinations, read-out: IC50 (μM ± SD) anti-proliferative activity against MM.1S cell line

T2 sequence (Q13547 whole entry): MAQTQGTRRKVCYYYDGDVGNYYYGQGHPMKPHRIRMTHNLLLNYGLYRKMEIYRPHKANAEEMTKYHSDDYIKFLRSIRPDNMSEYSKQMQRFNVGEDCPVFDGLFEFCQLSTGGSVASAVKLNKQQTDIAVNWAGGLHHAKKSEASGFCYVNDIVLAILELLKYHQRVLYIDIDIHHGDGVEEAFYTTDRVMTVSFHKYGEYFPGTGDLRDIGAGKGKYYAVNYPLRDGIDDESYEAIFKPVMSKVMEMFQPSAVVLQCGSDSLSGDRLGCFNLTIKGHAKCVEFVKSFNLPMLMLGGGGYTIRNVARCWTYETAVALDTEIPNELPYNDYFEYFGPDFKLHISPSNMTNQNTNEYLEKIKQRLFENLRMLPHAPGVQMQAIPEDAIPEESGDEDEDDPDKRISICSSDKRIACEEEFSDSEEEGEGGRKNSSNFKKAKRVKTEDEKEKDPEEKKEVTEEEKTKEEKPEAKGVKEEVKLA

Structure (SMILES) | IC50 [1] [µM] | IC50 [2] [µM] | IC50 [3] [µM] | IC50 [4, 9] [µM] | IC50 ([4]; MM.1S cells, printed beside the HDAC6 immunoblot, read-out: IC50 printed in the picture of Figure 4B) [µM] | HDAC6 degradation compared with HDAC1 and HDAC3 (immunoblot) ([5]; 0.12 μM) | degradation of HDAC6 (immunoblot) [5] | degradation of HDAC1 (immunoblot) [7] | degradation of HDAC3 (immunoblot) [8] | anti-proliferative potency relative to SAHA ([4]; MM.1S cell line) | increase in tubulin acetylation [6]
O=C(CCCCCCC(=O)Nc1cccc2c1CN(C1CCC(=O)NC1=O)C2=O)NO (stereo not drawn) [9b, N^1-(2-(2,6-Dioxopiperidin-3-yl)-1-oxoisoindolin-4-yl)-N^8-hydroxyoctanediamide] | 1.46 ± 1.02 | 0.38 ± 0.14 | 0.47 ± 0.01 | > 10 |  |  |  |  |  |  | 
O=C(CCCCCCCC(=O)Nc1cccc2c1CN(C1CCC(=O)NC1=O)C2=O)NO (stereo not drawn) [9c, N^1-(2-(2,6-Dioxopiperidin-3-yl)-1-oxoisoindolin-4-yl)-N^9-hydroxynonanediamide] | 3.67 ± 1.02 | 1.13 ± 0.03 | 1.06 ± 0.2 |  |  |  |  |  |  |  | 
O=C(CCCCCCCCC(=O)Nc1cccc2c1CN(C1CCC(=O)NC1=O)C2=O)NO (stereo not drawn) [9d, N^1-(2-(2,6-Dioxopiperidin-3-yl)-1-oxoisoindolin-4-yl)-N^10-hydroxydecanediamide] | 2.94 ± 0.62 | 0.72 ± 0.18 | 0.75 ± 0.06 |  |  |  |  |  |  |  | 
O=C(CCCCCCC(=O)Nc1cccc2c1C(=O)N(C1CCC(=O)NC1=O)C2=O)NO (stereo not drawn) [9e, N^1-(2-(2,6-Dioxopiperidin-3-yl)-1,3-dioxoisoindolin-4-yl)-N^8-hydroxyoctanediamide] | 0.42 ± 0.18 | 2.7 ± 0.36 | 0.33 ± 0.01 | > 10 |  |  |  |  |  |  | 
O=C(CCCCCNC(=O)Nc1cccc2c1CN(C1CCC(=O)NC1=O)C2=O)NO (stereo not drawn) [15a, 6-(3-(2-(2,6-Dioxopiperidin-3-yl)-1-oxoisoindolin-4-yl)ureido)-N-hydroxyhexanamide] | 5.96 ± 1.43 |  | 0.27 ± 0.04 | > 10 |  |  |  |  |  |  | 
O=C(CCCCCCNC(=O)Nc1cccc2c1CN(C1CCC(=O)NC1=O)C2=O)NO (stereo not drawn) [15b, 7-(3-(2-(2,6-Dioxopiperidin-3-yl)-1-oxoisoindolin-4-yl)ureido)-N-hydroxyheptanamide] | 1.67 ± 0.41 | 0.57 ± 0.04 | 0.58 ± 0.04 |  |  |  |  |  |  |  | 
O=C(CCCCCCCCNC(=O)Nc1cccc2c1CN(C1CCC(=O)NC1=O)C2=O)NO (stereo not drawn) [15c, 9-(3-(2-(2,6-Dioxopiperidin-3-yl)-1-oxoisoindolin-4-yl)ureido)-N-hydroxynonanamide] | 3.09 ± 0.54 | 0.82 ± 0.06 | 0.96 ± 0.13 |  |  |  |  |  |  |  | 
O=C(CCCCCNC(=O)Nc1cccc2c1C(=O)N(C1CCC(=O)NC1=O)C2=O)NO (stereo not drawn) [15d, 6-(3-(2-(2,6-Dioxopiperidin-3-yl)-1,3-dioxoisoindolin-4-yl)ureido)-N-hydroxyhexanamide] | 5.28 ± 1.42 | 0.44 ± 0.1 | 0.22 ± 0.02 | > 10 |  |  |  |  |  |  | 

Now from value to compound, other results behind:

IC50 [1] [µM] | IC50 [2] [µM] | IC50 [3] [µM] | IC50 [4, 9] [µM] | IC50 ([4]; MM.1S cells, printed beside the HDAC6 immunoblot, read-out: IC50 printed in the picture of Figure 4B) [µM] | HDAC6 degradation compared with HDAC1 and HDAC3 (immunoblot) ([5]; 0.12 μM) | degradation of HDAC6 (immunoblot) [5] | degradation of HDAC1 (immunoblot) [7] | degradation of HDAC3 (immunoblot) [8] | Structure (SMILES) | anti-proliferative potency relative to SAHA ([4]; MM.1S cell line) | increase in tubulin acetylation [6]
1.98 ± 0.69 | 2.31 ± 0.46 | 2.2 ± 0.29 |  |  |  |  |  |  | O=C(CCCCCC(=O)Nc1cccc2c1CN(C1CCC(=O)NC1=O)C2=O)NO (stereo not drawn) [9a, N^1-(2-(2,6-Dioxopiperidin-3-yl)-1-oxoisoindolin-4-yl)-N^7-hydroxyheptanediamide] |  | 
> 20 | 1.6 ± 0.54 | 0.56 ± 0.02 | 0.043 ± 0.02 | 0.04 | superior HDAC6 degradation efficacies | dose-dependent manner |  |  | Nc1ccccc1NC(=O)c1ccc(COc2cccc3c2CN(C2CCC(=O)NC2=O)C3=O)cc1 (stereo not drawn) [21a, N-(2-Aminophenyl)-4-(((2-(2,6-dioxopiperidin-3-yl)-1-oxoisoindolin-4-yl)oxy)methyl)benzamide] | approximately five times more potent | not observed
> 20 | 1.2 ± 0.44 | 0.28 ± 0.04 | 0.541 ± 0.108 |  |  | almost no degradation | almost no degradation | almost no degradation | Nc1ccccc1NC(=O)c1ccc(COc2cccc3c2C(=O)N(C2CCC(=O)NC2=O)C3=O)cc1 (stereo not drawn) [21b, N-(2-Aminophenyl)-4-(((2-(2,6-dioxopiperidin-3-yl)-1,3-dioxoisoindolin-4-yl)oxy)methyl)benzamide] |  | 
0.38 ± 0.1 | 8.32 ± 2.1 | 0.65 ± 0.03 | > 10 |  |  |  |  |  | O=C1CCC(N2Cc3c(OCc4ccc(C(=O)NO)cc4)cccc3C2=O)C(=O)N1 (stereo not drawn) [23a, 4-(((2-(2,6-Dioxopiperidin-3-yl)-1-oxoisoindolin-4-yl)oxy)methyl)-N-hydroxybenzamide] |  | 
> 20 | 2.23 ± 0.3 | 0.76 ± 0.1 | 1.34 ± 0.4 |  |  | almost no degradation | almost no degradation | almost no degradation | O=C1CCC(N2C(=O)c3cccc(OCc4ccc(C(=O)NO)cc4)c3C2=O)C(=O)N1 (stereo not drawn) [23b, 4-(((2-(2,6-Dioxopiperidin-3-yl)-1,3-dioxoisoindolin-4-yl)oxy)methyl)-N-hydroxybenzamide] |  | 
